Laboratory results from ChEMBL document CHEMBL1201861, “Genomics of Drug Sensitity in Cancer screening data, Wellcome Trust Sanger Institute”.

Key:
AU565 = experiment: cells; format: functional, cell-based, Homo sapiens; details: Homo sapiens, AU565;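 further: cell viability assay measuring growth inhibition of human AU565 cells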
Description: SANGER: Inhibition of human AU565 cell growth in a cell viability assay.

ECC4 = experiment: cells; format: functional, cell-based, Homo sapiens; details: Homo sapiens, ECC4;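 further: growth inhibition of ECC4 cells, read out with a cell viability assay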
Description: SANGER: Inhibition of human ECC4 cell growth in a cell viability assay.

L-540 = experiment: cells; format: functional, cell-based, Homo sapiens; details: Homo sapiens, L-540;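 further: growth inhibition of the human L-540 cell line, read out with a viability assay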
Description: SANGER: Inhibition of human L-540 cell growth in a cell viability assay.

RPMI 8402 = experiment: SANGER: Inhibition of human RPMI-8402 cell growth in a cell viability assay.; format: functional, cell-based; details: Homo sapiens, RPMI 8402; read-out: IC50
SCC-25 = experiment: cells; format: functional, cell-based, Homo sapiens; details: Homo sapiens, SCC-25;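 further: growth inhibition of SCC-25 cells, measured with a cell viability assay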
Description: SANGER: Inhibition of human SCC-25 cell growth in a cell viability assay.

NCI-H522 = experiment: cells; format: functional, cell-based, Homo sapiens; details: Homo sapiens, NCI-H522;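 further: cell viability assay measuring growth inhibition of human NCI-H522 cells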
Description: SANGER: Inhibition of human NCI-H522 cell growth in a cell viability assay.

A-427 = experiment: cells; format: functional, cell-based, Homo sapiens; details: Homo sapiens, A-427;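 further: growth inhibition of human A-427 cells, read out by a cell viability assay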
Description: SANGER: Inhibition of human A427 cell growth in a cell viability assay.

NCI-H187 = experiment: cells; format: functional, cell-based, Homo sapiens; details: Homo sapiens, NCI-H187;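 further: growth inhibition of NCI-H187 cells, read out as cell viability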
Description: SANGER: Inhibition of human NCI-H187 cell growth in a cell viability assay.

OAW-28 = experiment: cells; format: functional, cell-based, Homo sapiens; details: Homo sapiens, OAW-28;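 further: growth inhibition of OAW-28 cells, read out with a cell viability assay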
Description: SANGER: Inhibition of human OAW-28 cell growth in a cell viability assay.

MCF7 = experiment: cells; format: functional, cell-based, Homo sapiens; details: Homo sapiens, MCF7;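 further: growth inhibition of human MCF7 cells, read out with a cell viability assay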
Description: SANGER: Inhibition of human MCF7 cell growth in a cell viability assay.

DG-75 = experiment: cells; format: functional, cell-based, Homo sapiens; details: Homo sapiens, DG-75;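 further: growth inhibition of DG-75 cells, read out with a cell viability assay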
Description: SANGER: Inhibition of human DG-75 cell growth in a cell viability assay.

THP-1 = experiment: cells; format: functional, cell-based, Homo sapiens; details: Homo sapiens, THP-1;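 further: growth inhibition of THP-1 cells, read out via a cell viability assay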
Description: SANGER: Inhibition of human THP-1 cell growth in a cell viability assay.

SW1417 = experiment: cells; format: functional, cell-based, Homo sapiens; details: Homo sapiens, SW1417;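 further: growth inhibition of human SW1417 cells, read out with a cell viability assay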
Description: SANGER: Inhibition of human SW1417 cell growth in a cell viability assay.

HO-1-N-1 = experiment: cells; format: functional, cell-based, Homo sapiens; details: Homo sapiens, HO-1-N-1;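 further: growth inhibition of human HO-1-N-1 cells, read out with a cell viability assay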
Description: SANGER: Inhibition of human HO-1-N-1 cell growth in a cell viability assay.

HLE = experiment: cells; format: functional, cell-based, Homo sapiens; details: Homo sapiens, HLE
Description: SANGER: Inhibition of human HLE cell growth in a cell viability assay.

GDM-1 = experiment: cells; format: functional, cell-based, Homo sapiens; details: Homo sapiens, GDM-1;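 further: cell viability readout used to measure growth inhibition of human GDM-1 cells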
Description: SANGER: Inhibition of human GDM-1 cell growth in a cell viability assay.

RERF-LC-MS = experiment: cells; format: functional, cell-based, Homo sapiens; details: Homo sapiens, RERF-LC-MS;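 further: growth inhibition of human RERF-LC-MS cells, read out by a cell viability assay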
Description: SANGER: Inhibition of human RERF-LC-MS cell growth in a cell viability assay.

YT = experiment: cells; format: functional, cell-based, Homo sapiens; details: Homo sapiens, YT
Description: SANGER: Inhibition of human YT cell growth in a cell viability assay.

NCI-H2030 = experiment: cells; format: functional, cell-based, Homo sapiens; details: Homo sapiens, NCI-H2030;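 further: growth inhibition of human NCI-H2030 cells, read out by a cell viability assay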
Description: SANGER: Inhibition of human NCI-H2030 cell growth in a cell viability assay.

SKG-IIIa = experiment: cells; format: functional, cell-based, Homo sapiens; details: Homo sapiens, SKG-IIIa
Description: SANGER: Inhibition of human SKG-IIIa cell growth in a cell viability assay.

GCT = experiment: cells; format: functional, cell-based, Homo sapiens; details: Homo sapiens, GCT;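 further: GCT cell line proliferation inhibition, read out with a cell viability assay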
Description: SANGER: Inhibition of human GCT cell growth in a cell viability assay.

MIA PaCa-2 = experiment: cells; format: functional, cell-based, Homo sapiens; details: Homo sapiens, MIA PaCa-2;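 further: growth inhibition of MIA PaCa-2 cells, read out with a cell viability assay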
Description: SANGER: Inhibition of human MIA-PaCa-2 cell growth in a cell viability assay.

SK-OV-3 = experiment: cells; format: functional, cell-based, Homo sapiens; details: Homo sapiens, SK-OV-3;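 further: growth inhibition of SK-OV-3 human cells, read out with a cell viability assay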
Description: SANGER: Inhibition of human SK-OV-3 cell growth in a cell viability assay.

U2OS = experiment: cells; format: functional, cell-based, Homo sapiens, U-2-OS; details: Homo sapiens, U2OS;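 further: growth inhibition of human U-2-OS cells, determined with a cell viability assay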
Description: SANGER: Inhibition of human U-2-OS cell growth in a cell viability assay.

HCC1395 = experiment: cells; format: functional, cell-based, Homo sapiens; details: Homo sapiens, HCC1395;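 further: growth inhibition of HCC1395 cells, read out by a cell viability assay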
Description: SANGER: Inhibition of human HCC1395 cell growth in a cell viability assay.

A673 = experiment: cells; format: functional, cell-based, Homo sapiens; details: Homo sapiens, A673;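 further: growth inhibition of human A673 cells, read out through a cell viability assay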
Description: SANGER: Inhibition of human A673 cell growth in a cell viability assay.

NCI-H1563 = experiment: cells; format: functional, cell-based, Homo sapiens; details: Homo sapiens, NCI-H1563;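 further: growth inhibition of human NCI-H1563 cells, read out with a cell viability assay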
Description: SANGER: Inhibition of human NCI-H1563 cell growth in a cell viability assay.

SNU-449 = experiment: cells; format: functional, cell-based, Homo sapiens; details: Homo sapiens, SNU-449
Description: SANGER: Inhibition of human SNU-449 cell growth in a cell viability assay.

MDA-MB-231 = experiment: cells; format: functional, cell-based, Homo sapiens; details: Homo sapiens, MDA-MB-231
Description: SANGER: Inhibition of human MDA-MB-231 cell growth in a cell viability assay.

P31-FUJ = experiment: cells; format: functional, cell-based, Homo sapiens; details: Homo sapiens, P31-FUJ;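 further: growth inhibition of P31-FUJ cells, read out with a viability assay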
Description: SANGER: Inhibition of human P31-FUJ cell growth in a cell viability assay.

G-402 = experiment: cells; format: functional, cell-based, Homo sapiens; details: Homo sapiens, G-402
Description: SANGER: Inhibition of human G-402 cell growth in a cell viability assay.

JIYOYE = experiment: cells; format: functional, cell-based, Homo sapiens; details: Homo sapiens, JIYOYE
Description: SANGER: Inhibition of human JiyoyeP-2003 cell growth in a cell viability assay.

NCI-H2122 = experiment: cells; format: functional, cell-based, Homo sapiens; details: Homo sapiens, NCI-H2122
Description: SANGER: Inhibition of human NCI-H2122 cell growth in a cell viability assay.

COLO-680N = experiment: cells; format: functional, cell-based, Homo sapiens; details: Homo sapiens, COLO-680N;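 further: cell viability assay used to measure inhibition of COLO-680N cell growth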
Description: SANGER: Inhibition of human COLO-680N cell growth in a cell viability assay.

HSC-4 = experiment: cells; format: functional, cell-based, Homo sapiens; details: Homo sapiens, HSC-4;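 further: growth inhibition of human HSC-4 cells, read out with a cell viability assay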
Description: SANGER: Inhibition of human HSC-4 cell growth in a cell viability assay.

647-V = experiment: cells; format: functional, cell-based, Homo sapiens; details: Homo sapiens, 647-V;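 further: growth inhibition of 647-V cells, read out with a cell viability assay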
Description: SANGER: Inhibition of human 647-V cell growth in a cell viability assay.

UMUC3 = experiment: cells; format: functional, cell-based, Homo sapiens; details: Homo sapiens, UMUC3;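 further: growth inhibition of human UM-UC-3 cells, read out with a cell viability assay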
Description: SANGER: Inhibition of human UM-UC-3 cell growth in a cell viability assay.

A2780 = experiment: cells; format: functional, cell-based, Homo sapiens; details: Homo sapiens, A2780;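 further: growth inhibition of A2780 cells, read out with a cell viability assay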
Description: SANGER: Inhibition of human A2780 cell growth in a cell viability assay.

T98G = experiment: cells; format: functional, cell-based, Homo sapiens; details: Homo sapiens, T98G;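 further: growth inhibition of T98G cells, read out by a cell viability assay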
Description: SANGER: Inhibition of human T98G cell growth in a cell viability assay.

Huh-7 = experiment: cells; format: functional, cell-based, Homo sapiens; details: Homo sapiens, Huh-7;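 further: HuH-7 cell growth inhibition, read out with a cell viability assay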
Description: SANGER: Inhibition of human HuH-7 cell growth in a cell viability assay.

KYSE-270 = experiment: cells; format: functional, cell-based, Homo sapiens; details: Homo sapiens, KYSE-270;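 further: cell growth inhibition measured with a viability assay in the human KYSE-270 line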
Description: SANGER: Inhibition of human KYSE-270 cell growth in a cell viability assay.

NCI-H596 = experiment: cells; format: functional, cell-based, Homo sapiens; details: Homo sapiens, NCI-H596;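 further: growth inhibition of NCI-H596 cells, read out with a cell viability assay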
Description: SANGER: Inhibition of human NCI-H596 cell growth in a cell viability assay.

IST-SL2 = experiment: cells; format: functional, cell-based, Homo sapiens; details: Homo sapiens, IST-SL2;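 further: growth inhibition of human IST-SL2 cells, read out by a cell viability assay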
Description: SANGER: Inhibition of human IST-SL2 cell growth in a cell viability assay.

BL-70 = experiment: SANGER: Inhibition of human BL-70 cell growth in a cell viability assay.; format: functional, cell-based; details: Homo sapiens, BL-70
HCC1806 = experiment: cells; format: functional, cell-based, Homo sapiens; details: Homo sapiens, HCC1806;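 further: growth inhibition of the cancer cell line, determined with a cell viability assay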
Description: SANGER: Inhibition of human HCC1806 cell growth in a cell viability assay.

Hs-578T = experiment: cells; format: functional, cell-based, Homo sapiens; details: Homo sapiens, Hs-578T
Description: SANGER: Inhibition of human Hs-578-T cell growth in a cell viability assay.

BOKU = experiment: cells; format: functional, cell-based, Homo sapiens; details: Homo sapiens, BOKU
Description: SANGER: Inhibition of human BOKU cell growth in a cell viability assay.

Measured: IC50

C=C(c1ccc(C(=O)O)cc1)c1cc2c(cc1C)C(C)(C)CCC2(C)C [BEXAROTENE]
5970 nM: A-427
> 8000 nM: AU565 | ECC4 | L-540 | RPMI 8402 | SCC-25 | NCI-H522 | NCI-H187 | OAW-28 | MCF7 | DG-75 | THP-1 | SW1417 | HO-1-N-1 | HLE | GDM-1 | RERF-LC-MS | YT | NCI-H2030 | SKG-IIIa | GCT | MIA PaCa-2 | SK-OV-3 | U2OS | HCC1395 | A673 | NCI-H1563 | SNU-449 | MDA-MB-231 | P31-FUJ | G-402 | JIYOYE | COLO-680N | HSC-4 | 647-V | UMUC3 | A2780 | T98G | Huh-7 | KYSE-270 | NCI-H596 | IST-SL2 | BL-70 | HCC1806 | Hs-578T | BOKU
4940 nM: NCI-H2122

CCC/C=C/C=C/C(=O)O[C@H]1/C(=C/C(=O)OC)C[C@H]2C[C@H]([C@@H](C)O)OC(=O)C[C@H](O)C[C@@H]3C[C@H](OC(C)=O)C(C)(C)[C@](O)(C[C@@H]4C/C(=C/C(=O)OC)C[C@H](/C=C/C(C)(C)[C@]1(O)O2)O4)O3 [BRYOSTATIN 1]
> 8 nM: AU565 | ECC4 | L-540 | RPMI 8402 | SCC-25 | NCI-H522 | A-427 | NCI-H187 | OAW-28 | MCF7 | DG-75 | THP-1 | SW1417 | HO-1-N-1 | HLE | GDM-1 | RERF-LC-MS | YT | NCI-H2030 | SKG-IIIa | GCT | MIA PaCa-2 | SK-OV-3 | U2OS | HCC1395 | A673 | NCI-H1563 | SNU-449 | MDA-MB-231 | P31-FUJ | G-402 | JIYOYE | NCI-H2122 | COLO-680N | HSC-4 | 647-V | UMUC3 | A2780 | T98G | Huh-7 | KYSE-270 | NCI-H596 | IST-SL2 | BL-70 | HCC1806 | Hs-578T | BOKU

COc1cccc2c1C(=O)c1c(O)c3c(c(O)c1C2=O)C[C@@](O)(C(=O)CO)C[C@@H]3O[C@H]1C[C@H](N)[C@H](O)[C@H](C)O1 [DOXORUBICIN]
111 nM: BOKU
50.1 nM: SK-OV-3
179 nM: OAW-28
138 nM: JIYOYE
556 nM: NCI-H1563
861 nM: GCT
35.8 nM: HLE
7.21 nM: KYSE-270
11.8 nM: A-427
342 nM: BL-70
105 nM: AU565
86 nM: UMUC3
33.9 nM: COLO-680N
154 nM: SCC-25
11.7 nM: MCF7
99.1 nM: G-402
160 nM: GDM-1
> 1020 nM: ECC4 | YT | U2OS | HCC1395 | MDA-MB-231 | P31-FUJ | T98G | Hs-578T
68.8 nM: A2780
73.8 nM: IST-SL2
363 nM: SW1417
28.3 nM: NCI-H2030
493 nM: NCI-H187
75 nM: HCC1806
223 nM: HO-1-N-1
108 nM: NCI-H596
18.8 nM: 647-V
311 nM: SKG-IIIa
53.9 nM: RPMI 8402
258 nM: Huh-7
425 nM: RERF-LC-MS
213 nM: L-540
75.8 nM: HSC-4
216 nM: A673
548 nM: SNU-449
37.9 nM: NCI-H2122
51.9 nM: NCI-H522
989 nM: THP-1
34.2 nM: MIA PaCa-2
666 nM: DG-75
